Measurements reported in patent publication US9957271B2, “Substituted bicyclic aza-heterocycles and analogues as sirtuin modulators” (GlaxoSmithKline, LLC, priority 2012, dated 2018).
Like-named read-outs stand apart in the source and are kept apart here.

Biological target: T1, SIRT1 (Homo sapiens, UniProt Q96EB6)
T1 sequence (Q96EB6 1-747): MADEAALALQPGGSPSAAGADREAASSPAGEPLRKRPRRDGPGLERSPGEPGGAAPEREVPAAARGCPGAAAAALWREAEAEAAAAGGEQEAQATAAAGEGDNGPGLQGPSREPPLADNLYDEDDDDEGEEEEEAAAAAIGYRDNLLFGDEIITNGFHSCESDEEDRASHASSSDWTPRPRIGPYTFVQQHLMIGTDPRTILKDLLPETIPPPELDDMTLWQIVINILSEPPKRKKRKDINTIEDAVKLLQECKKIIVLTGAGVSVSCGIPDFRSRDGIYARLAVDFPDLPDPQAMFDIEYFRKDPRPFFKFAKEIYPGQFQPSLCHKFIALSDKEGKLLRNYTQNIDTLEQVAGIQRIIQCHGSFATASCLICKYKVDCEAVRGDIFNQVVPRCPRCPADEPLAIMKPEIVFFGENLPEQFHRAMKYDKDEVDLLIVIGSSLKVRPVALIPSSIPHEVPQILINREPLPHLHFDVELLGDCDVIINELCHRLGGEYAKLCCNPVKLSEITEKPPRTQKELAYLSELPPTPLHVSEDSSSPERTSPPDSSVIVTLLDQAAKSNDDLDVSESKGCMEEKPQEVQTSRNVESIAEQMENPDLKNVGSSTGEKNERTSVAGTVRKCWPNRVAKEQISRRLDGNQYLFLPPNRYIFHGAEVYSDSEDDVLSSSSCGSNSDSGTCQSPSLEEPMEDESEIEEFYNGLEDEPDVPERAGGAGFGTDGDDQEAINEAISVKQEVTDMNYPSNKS
Experiment: TAMRA based mass spectrometry assay of SIRT1 activity
Assay type: biochemical
Conditions: for Emax: read-out: TAMRA % Fold Act
Excerpt: Mass spectrometry based assays were used to identify modulators of SIRT1 activity. The TAMRA based assay utilized a peptide having 20 amino acid residues as follows: Ac-EE-K(biotin)-[…](Ac)NleSTEG-K(5TMR)-EE-NH2 (SEQ ID NO: 1), wherein K(Ac) is an acetylated lysine residue and Nle is a norleucine. The peptide was labeled with the fluorophore 5TMR (excitation 540 nm/emission 580 nm) at the C-terminus. The sequence of the peptide substrate was based on p53 with several modifications. In addition, the methionine residue naturally present in the sequence was replaced with the norleucine because the methionine may be susceptible to oxidation during synthesis and purification. The Trp based assay utilized a peptide having an amino acid residues as follows: Ac-R-H-K-K(Ac)-W-NH2 (SEQ ID NO: 2).
The TAMRA based mass spectrometry assay was conducted as follows: 0.5 μM peptide substrate and 120 μM βNAD^+ was incubated with 10 nM SIRT1 for 25 minutes at 25° C. in a reaction buffer (50 mM Tris-acetate pH 8, 137 mM NaCl, 2.7 mM KCl, 1 mM MgCl2, 5 mM DTT, 0.05% BSA). The SIRT1 protein was obtained by cloning the SirT1 gene into a T7-promoter containing vector, which was then transformed and expressed in BL21(DE3) bacterial cells. Test compound was added at varying concentrations to this reaction mixture and the resulting reactions were monitored. After the 25 minute incubation with SIRT1, 10 μL of 10% formic acid was added to stop the reaction. The resulting reactions were sealed and frozen for later mass spec analysis. Determination of the amount of deacetylated substrate peptide formed (or, alternatively, the amount of O-acetyl-ADP-ribose (OAADPR) generated) by the sirtuin-mediated NAD-dependent deacetylation reaction allowed for the precise measurement of relative SIRT1 activity in the presence of varying concentrations of the test compound versus control reactions lacking the test compound.
A control for inhibition of sirtuin activity was conducted by adding 1 μL of 500 mM nicotinamide as a negative control at the start of the reaction (e.g., permits determination of maximum sirtuin inhibition). A control for activation of sirtuin activity was conducted using 10 nM of sirtuin protein, with 1 μL of DMSO in place of compound, to determine the amount of deacetylation of the substrate at a given time point within the linear range of the assay. This time point was the same as that used for test compounds and, within the linear range, the endpoint represents a change in velocity.
For the above assay, SIRT1 protein was expressed and purified as follows. The SirT1 gene was cloned into a T7-promoter containing vector and transformed into BL21(DE3). The protein was expressed by induction with 1 mM IPTG as an N-terminal His-tag fusion protein at 18° C. overnight and harvested at 30,000×g. Cells were lysed with lysozyme in lysis buffer (50 mM Tris-HCl, 2 mM Tris[2-carboxyethyl]phosphine (TCEP), 10 μM ZnCl2, 200 mM NaCl) and further treated with sonication for […] for complete lysis. The protein was purified over a Ni-NTA column (Amersham) and fractions containing pure protein were pooled, concentrated and run over a sizing column (Sephadex S200 26/60 global). The peak containing soluble protein was collected and run on an Ion-exchange column (MonoQ). Gradient elution (200 mM-500 mM NaCl) yielded pure protein. This protein was concentrated and dialyzed against dialysis buffer (20 mM Tris-HCl, 2 mM TCEP) overnight. The protein was aliquoted and frozen at −80° C. until further use.

[1] = concentration of test compound giving 150% activation of SIRT1, TAMRA peptide substrate
[2] = percent maximum fold activation of SIRT1, TAMRA peptide substrate

Row | TAMRA EC1.5 (μM) [1] | Emax [2] [%] | TAMRA EC1.5 (μM) (TAMRA assay, concentration giving 150% activation of SIRT1) | Emax (TAMRA assay, percent maximum fold activation) [%] | Structure (SMILES)
1 | A (EC1.5<1 μM) | ≥ 350 | – | – | COc1cc(C)nc(NC(=O)c2cnc3ccc(-c4ccccc4C(F)(F)F)nn23)n1 [Compound 174]
2 | A (EC1.5<1 μM) | < 350 | – | – | O=C(Nc1cc(N2CCOCC2)ccn1)c1cnc2ccc(-c3ccccc3C(F)(F)F)nn12 [Compound 176]
3 | A (EC1.5<1 μM) | < 350 | – | – | O=C(Nc1cccc(N2CCOCC2)n1)c1cnc2ccc(-c3cccc(F)c3Cl)nn12 [Compound 178]
4 | A (EC1.5<1 μM) | < 350 | – | – | O=C(Nc1ccnc(N2CCC2)c1)c1cnc2ccc(-c3cccc(F)c3Cl)nn12 [Compound 179]
5 | B (EC1.5 1-25 μM) | ≥ 350 | – | – | O=C(Nc1cccc(CN2CCOCC2)n1)c1cnc2ccc(-c3cccc(F)c3Cl)nn12 [Compound 180]
6 | B (EC1.5 1-25 μM) | < 350 | – | – | O=C(Nc1ccncc1)c1cnc2ccc(-c3cccc(F)c3Cl)nn12 [Compound 181]
7 | B (EC1.5 1-25 μM) | < 350 | – | – | O=C(Nc1cnccn1)c1cnc2ccc(-c3cccc(F)c3Cl)nn12 [Compound 184]
8 | B (EC1.5 1-25 μM) | < 350 | – | – | CS(=O)(=O)c1ccccc1-c1ccc2ncc(C(=O)Nc3cccc(N4CCOCC4)n3)n2n1 [Compound 185]
9 | C (EC1.5>25 μM) | < 350 | – | – | CS(=O)(=O)c1ccccc1-c1ccc2ncc(C(=O)Nc3ccncc3)n2n1 [Compound 187]
10 | C (EC1.5>25 μM) | < 350 | – | – | CS(=O)(=O)c1ccccc1-c1ccc2ncc(C(=O)Nc3ccccn3)n2n1 [Compound 188]
11 | A (EC1.5<1 μM) | < 350 | – | – | N#Cc1ccccc1-c1ccc2ncc(C(=O)Nc3cccc(N4CCOCC4)n3)n2n1 [Compound 191]
12 | A (EC1.5<1 μM) | ≥ 350 | – | – | Cc1cc(-c2ccccc2C(F)(F)F)nn2c(C(=O)Nc3ccccn3)cnc12 [Compound 194]
13 | A (EC1.5<1 μM) | ≥ 350 | – | – | Cc1cc(-c2ccccc2C(F)(F)F)nn2c(C(=O)Nc3cccc(CN4CCOCC4)n3)cnc12 [Compound 195]
14 | A (EC1.5<1 μM) | ≥ 350 | – | – | COc1cc(NC(=O)c2cnc3ccc(-c4ccccc4C(F)(F)F)nn23)nc(OC)n1 [Compound 196]
15 | – | – | A (EC1.5<1 μM) | ≥ 350 | O=C(Nc1ccc(N2CCOCC2)cn1)c1cnc2ccc(-c3ccccc3C(F)(F)F)nn12 [Compound 199]

Second part, the compound before the results:

Row | Structure (SMILES) | TAMRA EC1.5 (μM) [1] | Emax [2] [%] | TAMRA EC1.5 (μM) (TAMRA assay, concentration giving 150% activation of SIRT1) | Emax (TAMRA assay, percent maximum fold activation) [%]
16 | O=C(Nc1ccncc1)c1cnc2ccc(-c3ccccc3F)nn12 [Compound 136] | B (EC1.5 1-25 μM) | < 350 | – | –
17 | O=C(Nc1ccccn1)c1cnc2ccc(-c3ccccc3F)nn12 [Compound 137] | B (EC1.5 1-25 μM) | < 350 | – | –
18 | O=C(Nc1cccnc1)c1cnc2ccc(-c3ccccc3F)nn12 [Compound 138] | B (EC1.5 1-25 μM) | < 350 | – | –
19 | O=C(Nc1cnccn1)c1cnc2ccc(-c3ccccc3F)nn12 [Compound 139] | B (EC1.5 1-25 μM) | < 350 | – | –
20 | O=C(Nc1ccccn1)c1cnc2ccc(-c3cccc(Cl)c3F)nn12 [Compound 142] | B (EC1.5 1-25 μM) | < 350 | – | –
21 | O=C(Nc1cnc2ccc(-c3ccccc3C(F)(F)F)nn12)c1cccc(N2CCC2)n1 [Compound 144] | A (EC1.5<1 μM) | ≥ 350 | – | –
22 | O=C(Nc1cnc2ccc(-c3ccccc3C(F)(F)F)nn12)c1cccc(CN2CCCC2)n1 [Compound 145] | A (EC1.5<1 μM) | ≥ 350 | – | –
23 | O=C(Nc1cnc2ccc(-c3ccccc3C(F)(F)F)nn12)c1ccc(CN2CCOCC2)nc1 [Compound 147] | B (EC1.5 1-25 μM) | < 350 | – | –
24 | O=C(Nc1cnc2ccc(-c3ccccc3C(F)(F)F)nn12)c1ccnc(CN2CCOCC2)c1 [Compound 148] | C (EC1.5>25 μM) | < 350 | – | –
25 | O=C(Nc1ncc(N2CCOCC2)s1)c1cnc2ccc(-c3ccccc3C(F)(F)F)nn12 [Compound 151] | A (EC1.5<1 μM) | ≥ 350 | – | –
26 | Cn1cc(NC(=O)c2cnc3ccc(-c4ccccc4C(F)(F)F)nn23)cn1 [Compound 153] | B (EC1.5 1-25 μM) | ≥ 350 | – | –
27 | COCCn1cc(NC(=O)c2cnc3ccc(-c4ccccc4C(F)(F)F)nn23)cn1 [Compound 154] | B (EC1.5 1-25 μM) | ≥ 350 | – | –
28 | COCCn1cc(NC(=O)c2cnc3ccc(-c4ccccc4C(F)(F)F)nn23)ccc1=O [Compound 156] | B (EC1.5 1-25 μM) | < 350 | – | –
29 | O=C(Nc1cnccn1)c1cnc2ccc(-c3cccc(Cl)c3F)nn12 [Compound 157] | B (EC1.5 1-25 μM) | < 350 | – | –
30 | O=C(Nc1cccc(N2CCOCC2)n1)c1cnc2ccc(-c3cccc(Cl)c3F)nn12 [Compound 158] | A (EC1.5<1 μM) | ≥ 350 | – | –
31 | O=C(Nc1cccc(CN2CCOCC2)n1)c1cnc2ccc(-c3c(F)cccc3Cl)nn12 [Compound 160] | B (EC1.5 1-25 μM) | ≥ 350 | – | –
32 | O=C(Nc1ccccn1)c1cnc2ccc(-c3c(F)cccc3Cl)nn12 [Compound 162] | B (EC1.5 1-25 μM) | < 350 | – | –
33 | O=C(Nc1cccnc1)c1cnc2ccc(-c3c(F)cccc3Cl)nn12 [Compound 163] | C (EC1.5>25 μM) | < 350 | – | –
34 | O=C(Nc1ccnc(N2CCC2)c1)c1cnc2ccc(-c3c(F)cccc3Cl)nn12 [Compound 165] | B (EC1.5 1-25 μM) | ≥ 350 | – | –
35 | O=C(Nc1ccncc1)c1cnc2ccc(-c3c(F)cccc3F)nn12 [Compound 166] | C (EC1.5>25 μM) | < 350 | – | –
36 | O=C(Nc1cccc(N2CCOCC2)n1)c1cnc2ccc(-c3c(F)cccc3F)nn12 [Compound 168] | A (EC1.5<1 μM) | ≥ 350 | – | –
37 | O=C(Nc1cccnc1)c1cnc2ccc(-c3c(F)cccc3F)nn12 [Compound 169] | C (EC1.5>25 μM) | < 350 | – | –
38 | O=C(Nc1cnccn1)c1cnc2ccc(-c3c(F)cccc3F)nn12 [Compound 171] | C (EC1.5>25 μM) | < 350 | – | –
39 | Cc1cc(-c2ccccc2C(F)(F)F)nn2c(C(=O)Nc3ccncc3)cnc12 [Compound 193, 8-methyl-N-(pyridin-4-yl)-6-(2-(trifluoromethyl)phenyl)imidazo[1,2-b]pyridazine-3-carboxamide] | A (EC1.5<1 μM) | ≥ 350 | – | –
